Measurements published in PubChem BioAssay (NCI).
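Grown in 96-well plates, cells were treated for 48 hours with each compound at five concentrations. Insufficient inhibition: endpoint recorded as highest concentration tested. Abbreviation: GI50, concentration required for 50% inhibition of growth. TGI denotes the concentration required for complete inhibition of growth.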

Columns and labels:
Experiment in all cases: NCI tumour cell line growth inhibition, 48 h
T-47D breast = test system: T-47D breast
HL-60(TB) leukemia = test system: HL-60(TB) leukemia
ACHN renal = test system: ACHN renal
HS 578T breast = test system: HS 578T breast
OVCAR-8 ovarian = test system: OVCAR-8 ovarian
SF-268 CNS = test system: SF-268 CNS
COLO 205 colon = test system: COLO 205 colon
UO-31 renal = test system: UO-31 renal
HCC-2998 colon = test system: HCC-2998 colon
SF-539 CNS = test system: SF-539 CNS
NCI/ADR-RES ovarian = test system: NCI/ADR-RES ovarian
K-562 leukemia = test system: K-562 leukemia
LOX IMVI melanoma = test system: LOX IMVI melanoma
HCT-116 colon = test system: HCT-116 colon
HOP-62 NSCLC = test system: HOP-62 NSCLC
SW-620 colon = test system: SW-620 colon
A498 renal = test system: A498 renal
U251 CNS = test system: U251 CNS
NCI-H460 lung = test system: NCI-H460 lung
UACC-62 melanoma = test system: UACC-62 melanoma
MOLT-4 leukemia = test system: MOLT-4 leukemia
SNB-19 CNS = test system: SNB-19 CNS
A549 NSCLC = test system: A549 NSCLC
NCI-H226 lung = test system: NCI-H226 lung
SF-295 CNS = test system: SF-295 CNS
SR leukemia = test system: SR leukemia
BT-549 breast = test system: BT-549 breast
MDA-MB-435 = test system: MDA-MB-435
RPMI-8226 leukemia = test system: RPMI-8226 leukemia
HT29 colon = test system: HT29 colon
NCI-H23 lung = test system: NCI-H23 lung
SK-MEL-28 melanoma = test system: SK-MEL-28 melanoma
DU-145 prostate = test system: DU-145 prostate
SK-OV-3 ovarian = test system: SK-OV-3 ovarian
KM12 colon = test system: KM12 colon
HCT-15 colon = test system: HCT-15 colon
IGROV1 ovarian = test system: IGROV1 ovarian
EKVX NSCLC = test system: EKVX NSCLC
MALME-3M melanoma = test system: MALME-3M melanoma
TK-10 renal = test system: TK-10 renal
PC-3 prostate = test system: PC-3 prostate
MDA-MB-231 breast = test system: MDA-MB-231 breast
UACC-257 melanoma = test system: UACC-257 melanoma
NCI-H522 lung = test system: NCI-H522 lung
OVCAR-5 ovarian = test system: OVCAR-5 ovarian
786-0 renal = test system: 786-0 renal
SK-MEL-5 melanoma = test system: SK-MEL-5 melanoma
CCRF-CEM leukemia = test system: CCRF-CEM leukemia
HOP-92 NSCLC = test system: HOP-92 NSCLC
SN12C renal = test system: SN12C renal
SNB-75 CNS = test system: SNB-75 CNS
MCF7 breast = test system: MCF7 breast
M14 melanoma = test system: M14 melanoma
CAKI-1 renal = test system: CAKI-1 renal
RXF 393 renal = test system: RXF 393 renal
OVCAR-4 ovarian = test system: OVCAR-4 ovarian

C#C[C@]1(O)CC[C@H]2[C@@H]3CC=C4c5sc(NCc6ccccc6)nc5CC[C@]4(C)[C@H]3CC[C@@]21C
GI50 (T-47D breast): 2.76 µM | TGI (T-47D breast): 16.6 µM | GI50 (HL-60(TB) leukemia): 3.01 µM | TGI (HL-60(TB) leukemia): 9.19 µM | GI50 (ACHN renal): 3.92 µM | TGI (ACHN renal): 15.9 µM | GI50 (HS 578T breast): 2.02 µM | TGI (HS 578T breast): 6.42 µM | GI50 (OVCAR-8 ovarian): 3.78 µM | TGI (OVCAR-8 ovarian): 14.4 µM | GI50 (SF-268 CNS): 3.85 µM | TGI (SF-268 CNS): 16.4 µM | GI50 (COLO 205 colon): 1.92 µM | TGI (COLO 205 colon): 3.62 µM | GI50 (UO-31 renal): 2.21 µM | TGI (UO-31 renal): 5.41 µM | GI50 (HCC-2998 colon): 4.05 µM | TGI (HCC-2998 colon): 14.1 µM | GI50 (SF-539 CNS): 1.4 µM | TGI (SF-539 CNS): 3.18 µM | GI50 (NCI/ADR-RES ovarian): 3.87 µM | TGI (NCI/ADR-RES ovarian): 43.9 µM | GI50 (K-562 leukemia): 3.23 µM | TGI (K-562 leukemia): > 100 µM | GI50 (LOX IMVI melanoma): 2.19 µM | TGI (LOX IMVI melanoma): 4.93 µM | GI50 (HCT-116 colon): 3.37 µM | TGI (HCT-116 colon): 11.5 µM | GI50 (HOP-62 NSCLC): 2.05 µM | TGI (HOP-62 NSCLC): 4.94 µM | GI50 (SW-620 colon): 2.22 µM | TGI (SW-620 colon): 4.68 µM | GI50 (A498 renal): 1.72 µM | TGI (A498 renal): 4.24 µM | GI50 (U251 CNS): 1.8 µM | TGI (U251 CNS): 5.8 µM | GI50 (NCI-H460 lung): 4.66 µM | TGI (NCI-H460 lung): 16.6 µM | GI50 (UACC-62 melanoma): 1.97 µM | TGI (UACC-62 melanoma): 4.49 µM | GI50 (MOLT-4 leukemia): 2.66 µM | TGI (MOLT-4 leukemia): 8.69 µM | GI50 (SNB-19 CNS): 4.01 µM | TGI (SNB-19 CNS): 18 µM | GI50 (A549 NSCLC): 3.48 µM | TGI (A549 NSCLC): 13.1 µM | GI50 (NCI-H226 lung): 11.3 µM | TGI (NCI-H226 lung): 37.1 µM | GI50 (SF-295 CNS): 1.94 µM | TGI (SF-295 CNS): 4.08 µM | GI50 (SR leukemia): 3.16 µM | TGI (SR leukemia): 29.6 µM | GI50 (BT-549 breast): 2.82 µM | TGI (BT-549 breast): 7.27 µM | GI50 (MDA-MB-435): 3.73 µM | TGI (MDA-MB-435): 18.7 µM | GI50 (RPMI-8226 leukemia): 1.65 µM | TGI (RPMI-8226 leukemia): 4.53 µM | GI50 (HT29 colon): 1.68 µM | TGI (HT29 colon): 3.54 µM | GI50 (NCI-H23 lung): 4.4 µM | TGI (NCI-H23 lung): 20.8 µM | GI50 (SK-MEL-28 melanoma): 2.31 µM | TGI (SK-MEL-28 melanoma): 7.2 µM | GI50 (DU-145 prostate): 7.54 µM | TGI (DU-145 prostate): 40.5 µM | GI50 (SK-OV-3 ovarian): 2.08 µM | TGI (SK-OV-3 ovarian): 4.41 µM | GI50 (KM12 colon): 3.18 µM | TGI (KM12 colon): 10.8 µM | GI50 (HCT-15 colon): 1.7 µM | TGI (HCT-15 colon): 4.15 µM | GI50 (IGROV1 ovarian): 5.83 µM | TGI (IGROV1 ovarian): 23.3 µM | GI50 (EKVX NSCLC): 4.16 µM | TGI (EKVX NSCLC): 16.3 µM | GI50 (MALME-3M melanoma): 2.14 µM | TGI (MALME-3M melanoma): 5.38 µM | GI50 (TK-10 renal): 5.48 µM | TGI (TK-10 renal): 18.5 µM | GI50 (PC-3 prostate): 2.29 µM | TGI (PC-3 prostate): 6.77 µM | GI50 (MDA-MB-231 breast): 2.64 µM | TGI (MDA-MB-231 breast): 7.07 µM | GI50 (UACC-257 melanoma): 1.82 µM | TGI (UACC-257 melanoma): 3.72 µM | GI50 (NCI-H522 lung): 2.62 µM | TGI (NCI-H522 lung): 8.35 µM | GI50 (OVCAR-5 ovarian): 4.55 µM | TGI (OVCAR-5 ovarian): 17.6 µM | GI50 (786-0 renal): 1.73 µM | TGI (786-0 renal): 3.47 µM | GI50 (SK-MEL-5 melanoma): 2.91 µM | TGI (SK-MEL-5 melanoma): 8.8 µM | GI50 (CCRF-CEM leukemia): 2.94 µM | TGI (CCRF-CEM leukemia): 9.49 µM | GI50 (HOP-92 NSCLC): 1.56 µM | TGI (HOP-92 NSCLC): 7.34 µM | GI50 (SN12C renal): 3.52 µM | TGI (SN12C renal): 16.7 µM | GI50 (SNB-75 CNS): 1.89 µM | GI50 (MCF7 breast): 3.31 µM | TGI (MCF7 breast): 10 µM | GI50 (M14 melanoma): 2.94 µM | TGI (M14 melanoma): 10.1 µM | GI50 (CAKI-1 renal): 2.59 µM | TGI (CAKI-1 renal): 8.04 µM | GI50 (RXF 393 renal): 1.23 µM | TGI (RXF 393 renal): 3.17 µM | GI50 (OVCAR-4 ovarian): 8.48 µM | TGI (OVCAR-4 ovarian): 32.9 µM
